Test [1] relates to Aspergillus terreus. In words: MIC, YAG medium, Aspergillus terreus. In kind it is cell-based. The conditions noted are these: Aspergillus terreus; YAG medium; read-out: MIC A Terreus 4. A digest of the protocol:
(§1)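 Doubling dilutions (50-0.05 mg/L) were tested against Candida in RPMI with 2% glucose and 0.135M MOPS, pH7.0, at 1-2×10^3 cfu/ml for 24-48 hrs, 35° C; MIC is >80% inhibition at OD485. Aspergillus in YAG medium at 1-2×10^4 cfu/ml for 24 hrs was scored at >70% inhibition; low MICs were retested over 0.5-0.0005 mg/L.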

In test [2] the test system is Aspergillus fumigatus AF210. In words: MIC, YAG medium, Aspergillus fumigatus AF210. As to conditions: Aspergillus fumigatus, AF210; YAG medium; read-out: MIC A Fum. 210. In kind it is cell-based. In a few lines:
as §1

Test [3] relates to Aspergillus fumigatus AF293. In words: MIC, YAG medium, Aspergillus fumigatus AF293. The test is classed as cell-based. As to conditions: Aspergillus fumigatus, AF293; YAG medium; read-out: MIC A Fum. 293. A digest of the protocol:
as §1

Test [4] deals with Aspergillus flavus. Kind of test: MIC, YAG medium, Aspergillus flavus. The test is classed as cell-based. As to conditions: Aspergillus flavus; YAG medium; read-out: MIC A Flavus 01. A digest of the protocol: as §1
Test [5] relates to Aspergillus niger. In words: MIC, YAG medium, Aspergillus niger. The test is classed as cell-based. The conditions noted are these: Aspergillus niger; YAG medium; read-out: MIC A Niger 1. In a few lines: as §1
Test [6] relates to A Terreus 49. In words: MIC, YAG medium, A Terreus 49. The test is classed as cell-based, Aspergillus terreus. The conditions noted are these: Aspergillus terreus; YAG medium; read-out: MIC A Terreus 49. On the procedure:
Measurement of Minimum Inhibitory Concentrations (MICs)
Between 1 and 5 mgs of compound were accurately weighed out into a sterile Eppendorf tube. The compound was dissolved in DMSO to give a solution containing 5 mg/ml. Tubes were stored at −20° C. until required.
On the day of testing thawed solutions were vortex mixed to ensure homogeneity. 30 μl of solution was removed and added to 570 μl of sterile water in a separate sterile Eppendorf. The thoroughly mixed solution was used to prepare a series of doubling dilutions in water, in a deep well plate. Eleven replicate plates were prepared using a Minitrak by aspirating 20 μl from each well into eleven clear polystyrene 96 well plates.
Spores of Aspergillus spp (Aspergillus fumigatus, Aspergillus terreus, Aspergillus niger and Aspergillus flavus) were harvested from cultures grown on Sabarauds agar for 5 days, and resuspended in PBS/Tween 80 to approx 1×10^7 cfu/ml Other filamentous fungi (Fusarium solani, Scedosporium spp., Trichophyton spp., Absidia corymbifera), were grown on Sabarauds agar for 2-10 days and spores/hyphae resuspended in PBS/Tween to give approx 1×10^7 cfU/ml. Candida species (Candida albicans, Candida glabrata, Candida krusei, Candida parapsilosis and Candida tropicalis) were grown on Sabarauds agar, cells were harvested from the agar using a sterile loop and resuspended in PBS/Tween 80 to approx 1×10^6 cfu/ml. Each organism suspension was diluted in RPMI medium, containing 2% glucose and 0.135M MOPS buffer (pH7.0) to 2×10^4 cfu/ml for Aspergillus spp and other filamentous fungi and 2×10^3 cfu/ml for yeast. 80 μl of an organism suspension was added to each well of the plate containing drug dilutions.
This produced MIC plates with a drug range 50-0.05 mg/L and organism inocula of 1-2×10^4 cfu/ml for Aspergillus spp and other filamentous fungi and 1-2×10^3 cfu/ml for yeasts. All plates were incubated for 24-48 hrs at 35° C. Growth was assessed by monitoring the optical density at 485 nm for each well. The MIC of a compound is the lowest drug concentration that inhibits growth of an organism by >80% compared with a drug free control. MICs are recorded as mg/L. Other growth media can be used for susceptibility testing, and the activity of the described compounds can also be assessed in a medium comprising, 1% glucose, 1% ammonium chloride and 0.5% yeast extract (YAG medium). To perform MIC tests in this medium, dilutions of compounds are prepared in microtitre plates as described above. Fungal strains to be tested are grown and harvested in an identical manner to that described above, each organism suspension is then diluted in YAG medium to 2×10^4 cfu/ml for Aspergillus spp and other filamentous fungi and 2×10^3 cfu/ml for yeast. 80 μl of an organism suspension was added to each well of the plate containing drug dilutions. This produced MIC plates with a drug range 50-0.05 mg/L and organism inocula of 1-2×10^4 cfu/ml for Aspergillus spp and other filamentous fungi and 1-2×10^3 cfu/ml for yeasts. All plates were incubated for 24 hrs at 35° C. Growth was assessed by monitoring the optical density at 485 nm for each well. The MIC of a compound is the lowest drug concentration that inhibits growth of an organism by >70% compared with a drug free control. MICs are recorded as mg/L. In cases where the MIC of an organism is […]0.05 mg/L the MIC is repeated using a concentration range of 0.5-0.0005 mg/L. MIC tests in YAG medium have more clear-cut endpoints and have slightly lower MICS than those performed in RPMI medium.
The following organisms were tested: Aspergillus fumigatus AF293 and Aspergillus fumigatus AF210, Aspergillus niger, Aspergillus terreus, Aspergillus favus, Candida albicans, Candida krusei, Candida tropicalis, Candida glabrata, Candida parapsilosis, Trichophyton rubrum, Trichophyton mentagrophytes, Scedosporium prolificans, Scedosporium apiospermum, Absidia corymbifera, Fusarium solani.

≈ marks a conversion by molar mass, not a printed value.

As usually defined, the MIC is the smallest concentration in the dilution series that meets the test's criterion for growth inhibition. Turning to `Cn1ccc2cc(NC(=O)C(=O)c3c(-c4ccccc4)cc4ccccn34)ccc21` [Example 256, N-(1-Methyl-1H-indol-5-yl)-2-oxo-2-(2-phenyl-indolizin-3-yl)-acetamide], the MIC in test [1] was determined as 0.001 mg/L (≈ 0.00254 µM); in test [2], 0.015 mg/L (≈ 0.0381 µM); in test [3], 0.015 mg/L (≈ 0.0381 µM); in test [4] it was 0.04 mg/L (≈ 0.102 µM); in test [5], 0.03 mg/L (≈ 0.0762 µM); in test [6], 0.001 mg/L (≈ 0.00254 µM).

For the molecule `CCCCOC(=O)c1ccc(NC(=O)C(=O)c2c(-c3ccccc3)cc3ccccn23)cc1` [Example 144, 4-[2-Oxo-2-(2-phenyl-indolizin-3-yl)-acetylamino]-benzoic acid butyl ester], the MIC amounted to 0.062 mg/L (≈ 0.141 µM) in test [1]; 0.062 mg/L (≈ 0.141 µM) in test [2]; 0.06 mg/L (≈ 0.136 µM) in test [3]; 0.015 mg/L (≈ 0.0341 µM) in test [4]; 0.008 mg/L (≈ 0.0182 µM) in test [5]; 0.008 mg/L (≈ 0.0182 µM) in test [6].

For the molecule `CCN(CC)c1ccc(NC(=O)C(=O)c2c(-c3ccccc3)cc3ccccn23)cc1C` [Example 290, N-(4-Diethylamino-3-methyl-phenyl)-2-oxo-2-(2-phenyl-indolizin-3-yl)-acetamide], the MIC in test [1] was found to be 0.03 mg/L (≈ 0.0705 µM); in test [2], 0.2 mg/L (≈ 0.47 µM); in test [3], 0.1 mg/L (≈ 0.235 µM); in test [4], 0.05 mg/L (≈ 0.117 µM); in test [5], 0.05 mg/L (≈ 0.117 µM); in test [6], 0.003 mg/L (≈ 0.00705 µM).

With `Cc1ccc(NC(=O)C(=O)c2c(-c3cccnc3)cc3ccccn23)cc1` [Example 173, 2-Oxo-2-(2-pyridin-3-yl-indolizin-3-yl)-N-p-tolyl-acetamide], the MIC in test [1] is 0.12 mg/L (≈ 0.338 µM); in test [2], 0.4 mg/L (≈ 1.13 µM); in test [3], 0.5 mg/L (≈ 1.41 µM); in test [4], 0.12 mg/L (≈ 0.338 µM); in test [5], 0.5 mg/L (≈ 1.41 µM); in test [6], 0.12 mg/L (≈ 0.338 µM).

With `CN(C)c1ccc(NC(=O)C(=O)c2c(-c3ccccc3)cc3ccccn23)cc1-c1ncco1` [Example 292, N-(4-Dimethylamino-3-oxazol-2-yl-phenyl)-2-oxo-2-(2-phenyl-indolizin-3-yl)-acetamide], the MIC turned out to be 0.03 mg/L (≈ 0.0666 µM) in test [1]; 0.2 mg/L (≈ 0.444 µM) in test [2]; 0.4 mg/L (≈ 0.888 µM) in test [3]; 0.03 mg/L (≈ 0.0666 µM) in test [4]; 0.8 mg/L (≈ 1.78 µM) in test [5]; 0.015 mg/L (≈ 0.0333 µM) in test [6].

Consider `O=C(Nc1cccc(-c2ncco2)c1)C(=O)c1c(-c2ccccc2)cc2ccccn12` [Example 288, N-(3-Oxazol-2-yl-phenyl)-2-oxo-2-(2-phenyl-indolizin-3-yl)-acetamide], for which the MIC in test [1] was 0.008 mg/L (≈ 0.0196 µM); in test [2] it was 0.2 mg/L (≈ 0.491 µM); in test [3] it was 0.1 mg/L (≈ 0.245 µM); in test [4], 0.015 mg/L (≈ 0.0368 µM); in test [5] it was 0.1 mg/L (≈ 0.245 µM); in test [6] it was 0.004 mg/L (≈ 0.00982 µM).

Consider `O=C(Nc1ccc(Nc2ncccn2)cc1)C(=O)c1c(-c2ccccc2)cc2ccccn12` [Example 276, 2-Oxo-2-(2-phenyl-indolizin-3-yl)-N-[4-(pyrimidin-2-ylamino)-phenyl]-acetamide], for which the MIC in test [1] stood at 0.05 mg/L (≈ 0.115 µM); in test [2], 0.2 mg/L (≈ 0.461 µM); in test [3] it was 0.1 mg/L (≈ 0.231 µM); in test [4] it was 0.05 mg/L (≈ 0.115 µM); in test [5], 0.05 mg/L (≈ 0.115 µM); in test [6], 0.015 mg/L (≈ 0.0346 µM).

On to `CC(C)c1ccc(NC(=O)C(=O)c2c(-c3ccccc3)cc3ccccn23)cc1` [Example 252, N-(4-Isopropyl-phenyl)-2-oxo-2-(2-phenyl-indolizin-3-yl)-acetamide], for which the MIC turned out to be 0.008 mg/L (≈ 0.0209 µM) in test [1]; 0.062 mg/L (≈ 0.162 µM) in test [2]; 0.008 mg/L (≈ 0.0209 µM) in test [3]; 0.015 mg/L (≈ 0.0392 µM) in test [4]; 0.004 mg/L (≈ 0.0105 µM) in test [5]; 0.002 mg/L (≈ 0.00523 µM) in test [6].

The record behind these values is US8486962B2, “Antifungal agents” (F2G Ltd., priority 2005, dated 2013).
